In this assay the target is T1, Human recombinant MMP-2 (Homo sapiens, UniProt P08253).
T1 construct: made in house; host or cells: MMP-2-transfected p2AHT2 cells
T1 sequence (P08253 110-660): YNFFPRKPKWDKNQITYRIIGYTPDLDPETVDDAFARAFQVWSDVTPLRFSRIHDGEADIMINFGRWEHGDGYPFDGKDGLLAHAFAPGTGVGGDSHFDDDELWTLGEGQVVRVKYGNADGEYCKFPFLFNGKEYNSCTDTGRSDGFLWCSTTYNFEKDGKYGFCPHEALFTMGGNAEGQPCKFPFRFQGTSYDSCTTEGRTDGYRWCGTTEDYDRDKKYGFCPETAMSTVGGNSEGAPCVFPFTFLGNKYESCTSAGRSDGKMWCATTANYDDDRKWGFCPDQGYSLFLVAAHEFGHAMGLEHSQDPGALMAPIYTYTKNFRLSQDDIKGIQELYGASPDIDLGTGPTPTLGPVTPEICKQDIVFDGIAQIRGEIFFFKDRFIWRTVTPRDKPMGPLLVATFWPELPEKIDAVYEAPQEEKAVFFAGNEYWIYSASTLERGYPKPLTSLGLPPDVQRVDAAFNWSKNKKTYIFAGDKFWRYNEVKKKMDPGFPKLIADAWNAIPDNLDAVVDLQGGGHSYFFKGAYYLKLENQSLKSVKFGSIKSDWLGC
The experiment in a line: In vitro MMP inhibition assay, MMP-2 (fluorogenic peptide substrate cleavage, Ki). In kind it is biochemical. Conditions: human MMP-2, full length (FL); read-out: hMMP Ki 02/FL. On the procedure:
Matrix Metalloproteinase inhibitor compounds were analyzed in in vitro MMP Inhibition assays to determine their ability to inhibit the MMP cleavage of peptide substrates. Inhibition constants (Ki) were calculated from the assayed compound-MMP interactions.
Human recombinant MMP-1, MMP-2, MMP-3, MMP-7, MMP-9, MMP-12, MMP-13, MMP-14 and MMP-15 were used in these assays. The enzymes are prepared following known laboratory procedures. Protocols for the preparation and use of these enzymes are available in the scientific literature. See, e.g., Enzyme Nomenclature (Academic Press, San Diego, Calif., 1992) and the citations therein. See also Frije et al., J. Biol. Chem., 26(24), 16766-73 (1994).
The MMP-1 proenzyme may be purified from spent media of MMP-1-transfected HT-1080 cells and the protein purified on a zinc chelating column. The MMP-2 proenzyme may be purified by gelatin Sepharose chromatography from MMP-2-transfected p2AHT2 cells. […]
The inhibitors are analyzed using a single low enzyme concentration with a single substrate concentration fixed at or below the Km. […] Apparent inhibitory constants are determined by non-linear regression of reaction velocity as a function of inhibitor and enzyme concentration using Morrison's equation, as described by Kuzmic, Anal. Biochem. 286, 45-50 (2000). […]

As for `COc1cccc(CNC(=O)c2nc3ccc(F)c(OCCC4CCN(C(=O)CO)CC4)c3c(=O)[nH]2)c1` [Example 34, 6-fluoro-5-[2-(1-glycoloylpiperidin-4-yl)ethoxy]-N-(3-methoxybenzyl)-4-oxo-3,4-dihydroquinazoline-2-carboxamide], the Ki came out at 5.65 µM.

(Values after patent US20110009435A1, “HETERO BICYCLIC CARBOXAMIDE DERIVATIVES AND THEIR PHARMACEUTICAL USE AND COMPOSITIONS” (Pfizer, Inc., priority 2007, published 2011).)
